Marks after values point to notes of the source that are not given here.
Test system: Mouse Kupffer cell
Assay: Phagocytosis assay of Kupffer cell (FITC-beads ingestion)
Type: cell-based
Details: relative to control (2% FCS) = 1
Protocol: C57BL6/j mice were intraperitoneally (ip) injected with a mixture of Rompun® xylazine anesthesia and ketamin (S-(+)-ketamine) anesthesia mixed at a ratio of 1:3. The central vein of each mouse was cannulated with a polyethylene catheter, and the liver tissue was perfused with 10 ml Ca^2+-free HBSS buffer for 10 minutes at a perfusion rate of 1 ml/min, and HBSS buffer containing 0.05% collagenase type IV for 10 minutes at the perfusion rate of 1 mL/min to soften the liver tissue. The softened liver tissue was excised, rinsed and cut open by a pair of forceps to release cell suspension from the liver tissue. After the connective tissue was detached, the cell suspension was filtered with a #53 nylon mesh and centrifuged at 30 g for 3 minutes. The cell suspension was then centrifuged at 600 g for 5 minutes. The supernatant was discarded and the cell pellet was resuspended in 15 mL RBC lysis buffer and allowed a reaction to take place for 2 minutes. The cell suspension was added with 15 mL of RPMI 1640 medium and centrifuged, and the cell pellet was resuspended in 5 mL of RPMI 1640 medium and layered on top of a Percoll™ solution consisting of 25% (v/v) Percoll™ density gradient medium. The cell solution was centrifuged, and the cell pellet containing enriched Kupffer cells was collected. The enriched Kupffer cells were washed with RPMI 1640 medium and resuspended in serum-free RPMI 1640 medium.
Kupffer cells were seeded (4×10^5 cells/well) in a 96-well culture plate and cultured in RPMI medium supplemented with 10% FCS, also known as 10% FCS RPMI medium hereinafter, for at least 24 hours. The medium was changed to 2% FCS RPMI medium added with PH of different concentrations (1000 μg/mL, 100 μg/mL, 10 μg/mL and 1 μg/mL). […] FluoroQuench™ dye (0.5 μL/well) was added to quench the fluorescence from the […] 1 μm-sized FITC-beads. The fluorescence of the ingested 1 μm-sized FITC-beads was measured with a cytofluorometer after one hour and normalized with the fluorescence of the control group to determine the relative phagocytosis index as shown in Table 2.

Q: For tuftsin, which “Mouse Kupffer cell Ingestion phagocytosis Index” value (1 μg/ml) is on record?
A: The value was 1.49**.

Q: What about the “Mouse Kupffer cell Ingestion phagocytosis Index” value (10 μg/ml) of the same substance?
A: Its value is 1.2*.

Q: What about the “Mouse Kupffer cell Ingestion phagocytosis Index” value (100 μg/ml) of the same substance?
A: The value was 1.01.

Reference: patent US7645463B2, “Method for treating diabetic vascular complications” (National Yang-Ming University, priority 2006, dated 2010)
